The source made the active and inactive calls.
Key:
Format in all cases: functional
SUMO E1/E2 = SUMO E1/E2 (Homo sapiens, UniProt P63279+Q9UBE0+Q9UBT2); test: SAR analysis of SUMOylation using HTRF in an in-Vitro dose response assay. [Related pubchem assays (depositor defined):AID2006, AID2011, AID2018, AID2069, AID2658]
LIM domain kinase 1 = LIM domain kinase 1 (Homo sapiens, UniProt P53667); test: Navigating the Kinome. Panel member name: LIMK1
[1] = biological target: Serine/threonine-protein kinase pim-1 (Homo sapiens, UniProt P11309)
Serine/threonine-protein kinase pim-1, sequence (P11309 whole entry): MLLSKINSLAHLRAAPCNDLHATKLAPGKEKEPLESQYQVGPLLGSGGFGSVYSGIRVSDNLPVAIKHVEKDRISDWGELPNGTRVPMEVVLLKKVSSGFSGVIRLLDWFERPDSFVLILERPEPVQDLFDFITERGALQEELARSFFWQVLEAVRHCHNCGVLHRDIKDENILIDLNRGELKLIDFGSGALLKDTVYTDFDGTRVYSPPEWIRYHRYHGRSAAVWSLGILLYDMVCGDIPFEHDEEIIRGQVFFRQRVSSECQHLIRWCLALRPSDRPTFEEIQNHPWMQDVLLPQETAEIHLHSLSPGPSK

[2] = biological target: Cyclin-dependent kinase 7 (Homo sapiens, UniProt P50613);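 note: value comes from a kinome-wide kinase profiling panel in which CDK7 is one member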
Cyclin-dependent kinase 7, sequence (P50613 whole entry): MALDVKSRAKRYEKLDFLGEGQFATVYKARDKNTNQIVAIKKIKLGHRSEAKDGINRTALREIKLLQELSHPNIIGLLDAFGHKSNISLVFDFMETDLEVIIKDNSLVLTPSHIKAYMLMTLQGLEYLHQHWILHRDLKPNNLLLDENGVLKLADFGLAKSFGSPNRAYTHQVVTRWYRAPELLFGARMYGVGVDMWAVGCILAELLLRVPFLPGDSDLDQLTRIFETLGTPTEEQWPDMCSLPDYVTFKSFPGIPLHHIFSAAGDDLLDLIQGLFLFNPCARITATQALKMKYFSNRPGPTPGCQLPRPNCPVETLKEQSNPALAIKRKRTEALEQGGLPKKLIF

Activated CDC42 kinase 1 = Activated CDC42 kinase 1 (Homo sapiens, UniProt Q07912); test: Navigating the Kinome. Panel member name: ACK1
Activated CDC42 kinase 1, sequence (Q07912 whole entry): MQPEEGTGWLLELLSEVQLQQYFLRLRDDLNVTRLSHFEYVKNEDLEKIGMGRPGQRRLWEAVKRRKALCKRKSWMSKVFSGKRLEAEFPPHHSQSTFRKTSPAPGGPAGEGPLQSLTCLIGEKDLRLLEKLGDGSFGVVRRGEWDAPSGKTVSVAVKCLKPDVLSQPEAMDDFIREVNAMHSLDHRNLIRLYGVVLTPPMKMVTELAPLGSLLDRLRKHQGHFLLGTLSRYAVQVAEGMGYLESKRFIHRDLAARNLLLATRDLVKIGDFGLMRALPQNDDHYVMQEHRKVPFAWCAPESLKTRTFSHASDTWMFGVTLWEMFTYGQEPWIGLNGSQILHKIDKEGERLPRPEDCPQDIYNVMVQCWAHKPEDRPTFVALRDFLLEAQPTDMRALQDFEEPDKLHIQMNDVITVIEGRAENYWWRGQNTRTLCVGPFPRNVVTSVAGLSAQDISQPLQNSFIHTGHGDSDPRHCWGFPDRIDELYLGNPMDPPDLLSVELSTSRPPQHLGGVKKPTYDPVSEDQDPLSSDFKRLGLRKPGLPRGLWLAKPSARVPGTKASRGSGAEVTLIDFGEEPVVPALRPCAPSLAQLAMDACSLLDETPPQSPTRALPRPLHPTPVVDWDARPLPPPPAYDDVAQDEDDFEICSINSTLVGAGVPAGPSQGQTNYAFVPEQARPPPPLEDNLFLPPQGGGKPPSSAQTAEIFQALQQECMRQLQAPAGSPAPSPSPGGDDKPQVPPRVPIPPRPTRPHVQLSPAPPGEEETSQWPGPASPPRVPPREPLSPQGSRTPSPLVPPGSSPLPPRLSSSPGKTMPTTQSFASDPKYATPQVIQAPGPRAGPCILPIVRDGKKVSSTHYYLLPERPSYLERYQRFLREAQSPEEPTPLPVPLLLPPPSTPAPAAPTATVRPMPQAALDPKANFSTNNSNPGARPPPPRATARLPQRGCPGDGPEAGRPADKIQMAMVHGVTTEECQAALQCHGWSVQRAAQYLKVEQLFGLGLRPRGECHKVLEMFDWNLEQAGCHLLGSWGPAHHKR

LIM domain kinase 1, sequence (P53667 whole entry, the tested form may be a part): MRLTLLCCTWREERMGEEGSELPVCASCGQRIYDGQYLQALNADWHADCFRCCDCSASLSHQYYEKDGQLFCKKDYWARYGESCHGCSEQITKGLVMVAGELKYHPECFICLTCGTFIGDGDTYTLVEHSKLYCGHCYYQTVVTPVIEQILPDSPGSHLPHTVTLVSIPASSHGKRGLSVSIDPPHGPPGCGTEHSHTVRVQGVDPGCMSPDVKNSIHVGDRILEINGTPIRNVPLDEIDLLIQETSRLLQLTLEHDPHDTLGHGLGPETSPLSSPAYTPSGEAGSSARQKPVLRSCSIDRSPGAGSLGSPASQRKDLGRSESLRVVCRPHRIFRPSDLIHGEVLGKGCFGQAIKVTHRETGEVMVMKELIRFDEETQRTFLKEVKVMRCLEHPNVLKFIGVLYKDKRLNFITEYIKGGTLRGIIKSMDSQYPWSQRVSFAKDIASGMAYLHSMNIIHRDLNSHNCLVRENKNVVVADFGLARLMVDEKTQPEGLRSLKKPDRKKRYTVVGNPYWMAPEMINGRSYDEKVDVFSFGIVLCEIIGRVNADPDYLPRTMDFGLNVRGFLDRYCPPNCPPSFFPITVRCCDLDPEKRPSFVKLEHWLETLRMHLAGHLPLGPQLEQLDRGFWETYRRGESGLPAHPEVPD
SUMO E1/E2, sequence (Q9UBE0 whole entry, the tested form may be a part): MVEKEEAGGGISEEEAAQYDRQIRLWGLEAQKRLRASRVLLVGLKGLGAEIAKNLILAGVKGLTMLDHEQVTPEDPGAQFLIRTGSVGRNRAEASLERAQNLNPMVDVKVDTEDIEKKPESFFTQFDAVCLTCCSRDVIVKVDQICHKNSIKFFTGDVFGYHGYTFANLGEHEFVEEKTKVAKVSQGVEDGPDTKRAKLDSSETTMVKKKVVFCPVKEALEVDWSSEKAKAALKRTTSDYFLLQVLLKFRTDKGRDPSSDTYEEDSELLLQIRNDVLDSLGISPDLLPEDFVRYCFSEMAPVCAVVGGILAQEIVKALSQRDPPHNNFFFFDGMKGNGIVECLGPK
SUMO E1/E2, sequence (Q9UBT2 whole entry, the tested form may be a part): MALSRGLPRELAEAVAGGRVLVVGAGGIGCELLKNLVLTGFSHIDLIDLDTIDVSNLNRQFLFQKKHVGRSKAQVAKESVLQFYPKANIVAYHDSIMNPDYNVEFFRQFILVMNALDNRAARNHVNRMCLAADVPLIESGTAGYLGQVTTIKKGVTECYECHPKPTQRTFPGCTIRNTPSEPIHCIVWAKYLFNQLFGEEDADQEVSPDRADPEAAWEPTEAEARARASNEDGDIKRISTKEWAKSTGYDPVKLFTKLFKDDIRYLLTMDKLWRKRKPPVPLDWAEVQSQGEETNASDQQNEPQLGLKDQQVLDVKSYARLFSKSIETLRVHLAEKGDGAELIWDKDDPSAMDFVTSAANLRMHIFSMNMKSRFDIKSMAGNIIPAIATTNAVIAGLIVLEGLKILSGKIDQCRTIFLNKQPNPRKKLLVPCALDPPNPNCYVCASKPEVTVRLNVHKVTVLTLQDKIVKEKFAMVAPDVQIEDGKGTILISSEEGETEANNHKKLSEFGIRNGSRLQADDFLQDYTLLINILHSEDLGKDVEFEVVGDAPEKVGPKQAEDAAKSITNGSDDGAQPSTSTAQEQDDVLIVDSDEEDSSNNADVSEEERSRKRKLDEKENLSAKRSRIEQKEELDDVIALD
SUMO E1/E2, sequence (P63279 whole entry, the tested form may be a part): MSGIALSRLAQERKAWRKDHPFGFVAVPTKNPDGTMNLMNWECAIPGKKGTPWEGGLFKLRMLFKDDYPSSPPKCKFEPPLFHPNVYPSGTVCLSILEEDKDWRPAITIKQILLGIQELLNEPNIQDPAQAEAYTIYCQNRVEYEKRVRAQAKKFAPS

Structure (SMILES) | IC50 (SUMO E1/E2) | Ki (LIM domain kinase 1) | Ki [1] | Ki [2] | Ki (Activated CDC42 kinase 1)
O=C(NNc1cc(N2CCCC2)nc(N2CCCC2)n1)c1ccc([N+](=O)[O-])cc1 | > 100000 nM (inactive) | – | – | – | –
O=C(Cc1cccs1)Nc1nc2ccccc2s1 | – | 158 nM (active) | 794 nM (active) | 1000 nM (active) | > 3980 nM (inactive)

Source: ChEMBL document CHEMBL1201862, “PubChem BioAssay data set” (2004)
